What was measured:
[1] = biological target: KRAS G12V binding to BRAF (Homo sapiens (Human), UniProt P01116+P62937, G12V); assay: KRAS-BRAF with CYPA (500 nM) interaction assay (TR-FRET), G12V; assay type: biochemical
Procedure, shortened: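 A TR-FRET assay measured how compound, in the presence of CYPA, disrupts binding of GMPPNP-loaded 6His-KRAS G12V to BRAF. The buffer contained 25 mM HEPES PH=7.4, 0.002% Tween20, 0.1% BSA, 100 mM NaCl, 5 mM MgCl2 and 10 μM GMPPNP. Compounds ran as a 16-point 3-fold dilution series from 10 μM for 3 hours.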

KRAS G12C-BRAF complex = KRAS G12C-BRAF complex (Homo sapiens (Human), UniProt P01116+P62937, G12C); assay: KRAS G12C-BRAF NanoBit assay; assay type: cell-based; details: HEK293 cells, 3 hours of incubation
Sequence of KRAS G12C-BRAF complex (P01116-2 other isoform, or with tags, fused parts or gaps G12C): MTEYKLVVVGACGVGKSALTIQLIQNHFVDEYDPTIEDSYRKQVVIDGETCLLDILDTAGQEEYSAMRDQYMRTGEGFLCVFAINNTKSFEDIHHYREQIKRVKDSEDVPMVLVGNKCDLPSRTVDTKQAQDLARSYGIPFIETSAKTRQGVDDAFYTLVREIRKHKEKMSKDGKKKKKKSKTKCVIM
Sequence of KRAS G12C-BRAF complex (P62937 whole entry): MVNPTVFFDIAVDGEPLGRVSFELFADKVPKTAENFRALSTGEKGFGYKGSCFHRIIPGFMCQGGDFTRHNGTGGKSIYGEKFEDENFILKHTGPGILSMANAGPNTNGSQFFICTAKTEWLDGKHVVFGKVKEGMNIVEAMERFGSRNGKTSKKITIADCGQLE
Procedure, shortened: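 Stable HEK293 pool co-expressing SmBit-KRAS G12C and BRAF RBD-LgBit; 10,000 cells/well incubated 3 h with compound, 16-point 3-fold dilution from 30 μM final. Live-cell Nano-Glo substrate added, luminescence read at 20 min; disruption seen as luminescence decrease vs DMSO.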

[2] = system: AGS (ATCC-CRL-1739) cells; assay: Cell viability assay, G12D (AGS); assay type: cell-based, human; details: Homo sapiens, KRAS cell viability, 72 hrs, Cell Counting Kit-8
Procedure, shortened: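 After overnight attachment, cells received compounds (0.5% DMSO) for 72 hrs; viability was then quantified with CCK-8, reading OD450 minus OD650, and IC50 values were obtained from a 4-parameter concentration-response fit.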

[3] = system: phosphorylation of ERK, KRAS G12V in SW620; assay: pERK inhibition assay, KRAS G12V; assay type: cell-based, human; details: Homo sapiens, SW-620, SW620, 4 hours
Procedure, shortened: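 In-cell ELISA of phospho-ERK (HRP/TMB, OD450) after formaldehyde fixation and methanol permeabilization; IC50 by 4-parameter sigmoidal fit. Compound incubation 4 h, 0.5% DMSO final, on overnight-attached NCJ-H358, AGS or SW620 cells seeded at 30,000, 20,000 and 30,000 per well.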

Sequence of KRAS G12V binding to BRAF (P01116-2 other isoform, or with tags, fused parts or gaps G12V): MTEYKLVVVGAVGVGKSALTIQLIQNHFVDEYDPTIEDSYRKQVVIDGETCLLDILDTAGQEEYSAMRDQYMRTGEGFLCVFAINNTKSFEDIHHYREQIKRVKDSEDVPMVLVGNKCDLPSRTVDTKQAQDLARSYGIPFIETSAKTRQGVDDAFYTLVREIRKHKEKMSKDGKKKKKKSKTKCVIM
Sequence of KRAS G12V binding to BRAF (P62937 whole entry): as the sequence (P62937 whole entry) above

Structure (SMILES) | IC50 [1] [µM] | IC50 (KRAS G12C-BRAF complex) [µM] | IC50 [2] [µM] | IC50 [3] [µM]
CCn1c(-c2cc(N3CCOCC3)cnc2[C@H](C)OC)c2c3cc(c(F)cc31)-c1csc(n1)C[C@H](NC(=O)[C@H](C(C)C)N1CCC3(CN(C(=O)[C@H](F)Cl)C3)C1=O)C(=O)N1CCC[C@H](N1)C(=O)OCC(C)(C)C2 (atropisomer, axis not shown; (M)) [Example 52, (2S)-2-[2-[(2R)-2-chloro-2-fluoro-acetyl]-5-oxo-2,6-diazaspiro[3.4]octan-6-yl]-N-[(7S,13S)-21-ethyl-24-fluoro-(20M)-20-[2-[(1S)-1-methoxyethyl]-5-morpholino-3-pyridyl]-17,17-dimethyl-8,14-dioxo-15-oxa-4-thia-9,21,27,28-tetrazapentacyclo[17.5.2.1^2,5.1^9,13.0^22,26]octacosa-1(25),2,5(28),19,22(26),23-hexaen-7-yl]-3-methyl-butanamide] | > 10 | 0.07 | 4.72 | 0.058
CCn1c(-c2cc(N3CCOCC3)cnc2[C@H](C)OC)c2c3cc(c(F)cc31)-c1csc(n1)C[C@H](NC(=O)[C@H](C(C)C)N1CC[C@@]3(CCN(C(=O)[C@H](F)Cl)C3)C1=O)C(=O)N1CCC[C@H](N1)C(=O)OCC(C)(C)C2 (atropisomer, axis not shown; (M)) [Example 53, (2S)-2-[(5R)-7-[(2R)-2-chloro-2-fluoro-acetyl]-1-oxo-2,7-diazaspiro[4.4]nonan-2-yl]-N-[(7S,13S)-21-ethyl-24-fluoro-(20M)-20-[2-[(1S)-1-methoxyethyl]-5-morpholino-3-pyridyl]-17,17-dimethyl-8,14-dioxo-15-oxa-4-thia-9,21,27,28-tetrazapentacyclo[17.5.2.1^2,5.1^9,13.0^22,26]octacosa-1(25),2,5(28),19,22(26),23-hexaen-7-yl]-3-methyl-butanamide] | > 10 | 0.017 | 1.31 | 0.061
CCn1c(-c2cc(N3CCOCC3)cnc2[C@H](C)OC)c2c3cc(c(F)cc31)-c1csc(n1)C[C@H](NC(=O)[C@H](C(C)C)N(C)C(=O)C1(F)CCN(C(=O)[C@H](F)Cl)CC1)C(=O)N1CCC[C@H](N1)C(=O)OCC(C)(C)C2 (atropisomer, axis not shown; (M)) [Example 54, 1-[(2R)-2-chloro-2-fluoro-acetyl]-N-[(1S)-1-[[(7S,13S)-21-ethyl-24-fluoro-(20M)-20-[2-[(1S)-1-methoxyethyl]-5-morpholino-3-pyridyl]-17,17-dimethyl-8,14-dioxo-15-oxa-4-thia-9,21,27,28-tetrazapentacyclo[17.5.2.1^2,5.1^9,13.0^22,26]octacosa-1(25),2,5(28),19,22(26),23-hexaen-7-yl]carbamoyl]-2-methyl-propyl]-4-fluoro-N-methyl-piperidine-4-carboxamide] | 0.217 | 0.003 | 0.072 | 0.015
CCn1c(-c2cc(N3CCOCC3)cnc2[C@H](C)OC)c2c3cc(c(F)cc31)-c1csc(n1)C[C@H](NC(=O)[C@H](C(C)C)N(C)C(=O)[C@H]1CCN(C(=O)[C@H](F)Cl)C1)C(=O)N1CCC[C@H](N1)C(=O)OCC(C)(C)C2 (atropisomer, axis not shown; (M)) [Example 55, (3S)-1-[(2R)-2-chloro-2-fluoro-acetyl]-N-[(1S)-1-[[(7S,13S)-21-ethyl-24-fluoro-(20M)-20-[2-[(1S)-1-methoxyethyl]-5-morpholino-3-pyridyl]-17,17-dimethyl-8,14-dioxo-15-oxa-4-thia-9,21,27,28-tetrazapentacyclo[17.5.2.1^2,5.1^9,13.0^22,26]octacosa-1(25),2,5(28),19,22(26),23-hexaen-7-yl]carbamoyl]-2-methyl-propyl]-N-methyl-pyrrolidine-3-carboxamide] | 2.11 | 0.01 | 0.848 | 0.075
CO[C@@H](C)c1ncc(N2CCN(C)CC2)cc1-c1c2c3cc(c(F)cc3n1CC(F)(F)F)-c1csc(n1)C[C@H](NC(=O)[C@H](C(C)C)N1CCC[C@@]3(CCN(C(=O)[C@H](F)Cl)C3)C1=O)C(=O)N1CCC[C@H](N1)C(=O)OCC(C)(C)C2 (single isomer, unassigned) [Example 16] | > 10 | 0.008 | 2.65 | 0.015
CO[C@@H](C)c1ncc(N2CCN(C)CC2)cc1-c1c2c3cc(c(F)cc3n1CC(F)(F)F)-c1csc(n1)C[C@H](NC(=O)[C@H](C(C)C)N1CCC[C@]3(CCN(C(=O)[C@H](F)Cl)C3)C1=O)C(=O)N1CCC[C@H](N1)C(=O)OCC(C)(C)C2 (single isomer, unassigned) [Example 18] | 3.33 | 0.012 | 3.7 | 0.018
CC(C)[C@@H](C(=O)N[C@H]1Cc2cc(O)cc(c2)-c2ccc3c(C(C)(C)C#N)cn(c3c2)CC(C)(C)COC(=O)[C@@H]2CCCN(N2)C1=O)N1CCC2(CN(C(=O)CCl)C2)C1=O [RM44, reference compound] | > 10 | 11.7 | 6.23 | > 10
CC(C)[C@@H](C(=O)N[C@H]1Cc2cc(O)cc(c2)-c2ccc3c(C(C)(C)C#N)cn(c3c2)CC(C)(C)COC(=O)[C@@H]2CCCN(N2)C1=O)N1CCCC2(CCN(C(=O)CCl)C2)C1=O (some centres unmarked) [RM351, reference compound] | > 10 | 1.78 | 2.1 | > 10
